Like-named read-outs stand apart in the source and are kept apart here.

What is called Tmax is the time at which the peak concentration occurs.

The conditions of data set [1]: cited from earlier work; for T½: as printed in head of release profile table, Example 3.
The conditions of data set [2]: FIG. 2A, IR administration (memantine 20 mg bid, lamotrigine 200 mg qd); cited from earlier work.
Data set [3] in a line: Release profile (cumulative fraction released from formulation matrix to serum or gut environment). Type of data set: physicochemical.
The next data set has as its system mouse electroshock model. The experiment in a line: Dose ranging study in seizure model (mouse electroshock model). The data set is classed as in vivo. The following applies: seizure model (e.g., mouse electroshock model). An excerpt: An isobolic experiment ensues where the drugs are combined in fractions of their EDXXs to add up to ED100 (i.e., ED50:ED50, ED25:ED75, etc.). The plot of the data is constructed. The experiment points that lie below the straight line between the ED50 points on the graph are indicative of synergy, points on the line are indicative of additive effects, and points above the line are indicative of inhibitory effects. The point of maximum deviation from the isobolic line is the optimal ratio. This is the optimal steady state ratio (Cratio,ss) and is adjusted based upon the component half-lives. Similar protocols may be applied in a wide variety of validated animal models.

Take `NCC1(CC(=O)O)CCCCC1` [Gabapentin]: in data set [1] (humans), the “Human PK (t½)” value is 6 h and the Tmax was 3 h.

As to `Nc1nnc(-c2cccc(Cl)c2Cl)c(N)n1` [Lamotrigine], in data set [1] (humans), the “Human PK (t½)” value is 12 h and the time to peak (Tmax) was 2 h. In data set [2], the Tmax was 2 h and the T½ was 12 h.

On to `CC12CC3CC(C)(C1)CC(N)(C3)C2` [Memantine, 1-amino-3,5-dimethyladamantane], for which the T½ result in data set [1] is reported as “MEMANTINE T½ = 60 hrs”. Further, the Tmax in data set [2] was 3 h. Also, the cum. fraction was 0.2 in data set [3] (Time 1); 0.3 in data set [3] (Time 2); 0.4 in data set [3] (Time 4); 0.5 in data set [3] (Time 8); 0.6 in data set [3] (Time 12); 0.7 in data set [3] (Time 16). Moreover, the cum. fraction in data set [3] (Time 20) is recorded as 0.8; in data set [3] (Time 24), 0.9. The ED50 result in the data set on mouse electroshock model was “approximately 12 μM”.

Consider `NC(=O)N1c2ccccc2CC(=O)c2ccccc21` [Oxcarbazepine], for which, in data set [1] (humans), the “Human PK (t½) in hrs” value is on record as 2 hr for hrs and the time to peak (Tmax) is 4.5 h.

As to `CC1(C)O[C@@H]2[C@@H](CO[C@@]3(COS(N)(=O)=O)OC(C)(C)O[C@@H]23)O1` [Topiramate], in data set [1] (humans), the “Human PK (t½)” value is 21 h and the Tmax is 2 h. The ED50 entry with mouse electroshock model is on record as “approximately 5 μM”.

For the compound `NS(=O)(=O)Cc1noc2ccccc12` [Zonisamide], the T½ entry in data set [1] is “ZONISAMIDE T½ = 60 hrs”. Further, the “Human PK (t½)” value in data set [1] (humans) was 63 h. Moreover, the Tmax in data set [1] (humans) is 4 h. Besides, the cum. fraction came out at 0.2 in data set [3] (Time 1); 0.3 in data set [3] (Time 2); 0.4 in data set [3] (Time 4); 0.5 in data set [3] (Time 8); 0.6 in data set [3] (Time 12); 0.7 in data set [3] (Time 16). Further, the cum. fraction in data set [3] (Time 20) is 0.8; in data set [3] (Time 24), 0.9.

(Values after US20090306051A1, “Methods and compositions for the treatment of epilepsy, seizure disorders, and other CNS disorders” (priority 2004, published 2009).)
